Tests used:
Type in all cases: functional
SK-MEL-2 = test: Growth inhibition of human SK-MEL-2 cells assessed as cell growth at 0.1 uM after 48 hrs by SRB assay; settings: SK-MEL-2, 48 h, read-out: Activity
NCI-H322M = test: Growth inhibition of human NCI-H322M cells assessed as cell growth at 1 uM after 48 hrs by SRB assay; settings: read-out: Activity
K562 [1] = test: Growth inhibition of human K562 cells assessed as cell growth at 1 mM after 48 hrs by SRB assay; settings: K562, 48 h, read-out: Activity
HL-60(TB) [2] = test: Growth inhibition of human HL-60(TB) cells assessed as cell growth at 1 mM after 48 hrs by SRB assay; settings: HL-60, 48 h, read-out: Activity
SK-MEL-28 [3] = test: Growth inhibition of human SK-MEL-28 cells assessed as cell growth at 1 mM after 48 hrs by SRB assay; settings: SK-MEL-28, 48 h, read-out: Activity
HCT-116 = test: Growth inhibition of human HCT116 cells assessed as cell growth at 10 uM after 48 hrs by SRB assay; settings: HCT-116, 48 h, read-out: Activity
SN12C = test: Growth inhibition of human SN12C cells assessed as cell growth at 1 mM after 48 hrs by SRB assay; settings: read-out: Activity
SR [4] = test: Growth inhibition of human SR cells assessed as cell growth at 1 mM after 48 hrs by SRB assay; settings: read-out: Activity
T47D = test: Growth inhibition of human T47D cells assessed as cell growth at 100 uM after 48 hrs by SRB assay; settings: read-out: Activity
[5] = Growth inhibition of human […] cells assessed as cell growth at 1 mM after 48 hrs by SRB assay; settings: read-out: Activity
SW-620 [6] = test: Growth inhibition of human SW620 cells assessed as cell growth at 1 mM after 48 hrs by SRB assay; settings: SW-620, 48 h, read-out: Activity
SW-620 [7] = test: Growth inhibition of human SW620 cells after 48 hrs by […] growth inhibition assay; settings: SW-620, 48 h
ACHN = test: Growth inhibition of human ACHN cells assessed as cell growth at 100 uM after 48 hrs by SRB assay; settings: read-out: Activity
SW-620 [8] = test: Growth inhibition of human SW620 cells assessed as cell growth at 1 uM after 48 hrs by SRB assay; settings: SW-620, 48 h, read-out: Activity
NCI-H460 = test: Growth inhibition of human NCI-H460 cells after 48 hrs by […] growth inhibition assay; settings: NCI-H460, 48 h
SK-MEL-28 [9] = test: Growth inhibition of human SK-MEL-28 cells assessed as cell growth at 100 uM after 48 hrs by SRB assay; settings: SK-MEL-28, 48 h, read-out: Activity
M14 = test: Growth inhibition of human M14 cells assessed as cell growth at 100 uM after 48 hrs by SRB assay; settings: M14, 48 h, read-out: Activity
MCF7 [10] = test: Growth inhibition of human MCF7 cells assessed as cell growth at 1 mM after 48 hrs by SRB assay; settings: Homo sapiens, MCF7, 48 h; read-out: Activity
[11] = Growth inhibition of human Hs 578T cells assessed as cell growth at 10 uM after 48 hrs by SRB assay; settings: read-out: Activity
PC-3 = test: Growth inhibition of human PC3 cells assessed as cell growth at 1 mM after 48 hrs by SRB assay; settings: PC-3, 48 h, read-out: Activity
MOLT-4 [12] = test: Growth inhibition of human MOLT4 cells assessed as cell growth at 1 mM after 48 hrs by SRB assay; settings: MOLT-4, 48 h, read-out: Activity
HL-60(TB) [13] = test: Growth inhibition of human HL-60(TB) cells assessed as cell growth at 100 uM after 48 hrs by SRB assay; settings: HL-60, 48 h, read-out: Activity
HCT-15 = test: Growth inhibition of human HCT15 cells assessed as cell growth at 0.1 uM after 48 hrs by SRB assay; settings: HCT-15, 48 h, read-out: Activity
K562 [14] = test: Growth inhibition of human K562 cells after 48 hrs by […] growth inhibition assay; settings: K562, 48 h
SW-620 [15] = test: Growth inhibition of human SW620 cells assessed as cell growth at 0.1 uM after 48 hrs by SRB assay; settings: SW-620, 48 h, read-out: Activity
SK-MEL-28 [16] = test: Growth inhibition of human SK-MEL-28 cells assessed as cell growth at 0.1 uM after 48 hrs by SRB assay; settings: SK-MEL-28, 48 h, read-out: Activity
K562 [17] = test: Growth inhibition of human K562 cells assessed as cell growth at 0.1 uM after 48 hrs by SRB assay; settings: K562, 48 h, read-out: Activity
SNB-75 = test: Growth inhibition of human SNB75 cells assessed as cell growth at 100 uM after 48 hrs by SRB assay; settings: SNB-75, 48 h, read-out: Activity
UACC-62 = test: Growth inhibition of human UACC62 cells assessed as cell growth at 0.1 uM after 48 hrs by SRB assay; settings: UACC-62, 48 h, read-out: Activity
[18] = Growth inhibition of human Hs 578T cells after 48 hrs by […] growth inhibition assay
HL-60(TB) [19] = test: Growth inhibition of human HL-60(TB) cells assessed as cell growth at 1 uM after 48 hrs by SRB assay; settings: HL-60, 48 h, read-out: Activity
A549 = test: Growth inhibition of human A549 cells assessed as cell growth at 10 uM after 48 hrs by SRB assay; settings: A549, 48 h, read-out: Activity
[20] = Growth inhibition of human Hs 578T cells assessed as cell growth at 1 mM after 48 hrs by SRB assay; settings: read-out: Activity
MCF7 [21] = test: Growth inhibition of human MCF7 cells assessed as cell growth at 1 uM after 48 hrs by SRB assay; settings: MCF7, 48 h, read-out: Activity
SR [22] = test: Growth inhibition of human SR cells assessed as cell growth at 1 uM after 48 hrs by SRB assay; settings: read-out: Activity
[23] = Growth inhibition of human Hs 578T cells assessed as cell growth at 0.1 uM after 48 hrs by SRB assay; settings: read-out: Activity
MOLT-4 [24] = test: Growth inhibition of human MOLT4 cells assessed as cell growth at 100 uM after 48 hrs by SRB assay; settings: MOLT-4, 48 h, read-out: Activity
[25] = read-out: LC50 (the source's name)
[26] = read-out: pLC50 (the source's name) (converted)

SMILES: CCOC(=O)C[C@H]1[C@@H](O[Si](C)(C)C(C)(C)C)[C@H](n2cnc3c(NC(=O)Nc4ccccc4)ncnc32)O[C@@H]1CNC(=O)NC
- growth at 0.1 µM (SK-MEL-2): 102%
- growth at 1 µM (NCI-H322M): 90%
- growth at 1000 µM (K562 [1]): -17%
- growth at 1000 µM (HL-60(TB) [2]): 22%
- growth at 1000 µM (SK-MEL-28 [3]): -91%
- growth at 10 µM (HCT-116): 78%
- growth at 1000 µM (SN12C): 11%
- growth at 1000 µM (SR [4]): -34%
- growth at 100 µM (T47D): 16%
- growth at 1000 µM [5]: -57%
- growth at 1000 µM (SW-620 [6]): -33%
- GI50 (SW-620 [7]; read-out: GI50): 4.8 µM
- CC50 (SW-620 [7]; [25]): > 100 µM
- TGI (SW-620 [7]; read-out: TGI): 28.4 µM
- GI50 (SW-620 [7]; read-out: pGI50 (converted)): 4.79 µM
- CC50 (SW-620 [7]; [26]): > 100 µM
- TGI (SW-620 [7]; read-out: pTGI (converted)): 28.2 µM
- growth at 100 µM (ACHN): 47%
- growth at 1 µM (SW-620 [8]): 94%
- GI50 (NCI-H460; read-out: GI50): 5.54 µM
- CC50 (NCI-H460; [25]): > 100 µM
- TGI (NCI-H460; read-out: TGI): 25 µM
- GI50 (NCI-H460; read-out: pGI50 (converted)): 5.5 µM
- CC50 (NCI-H460; [26]): > 100 µM
- TGI (NCI-H460; read-out: pTGI (converted)): 25.1 µM
- growth at 100 µM (SK-MEL-28 [9]): 40%
- growth at 100 µM (M14): 4%
- growth at 1000 µM (MCF7 [10]): -8%
- growth at 10 µM [11]: 90%
- growth at 1000 µM (PC-3): -77%
- growth at 1000 µM (MOLT-4 [12]): -14%
- growth at 100 µM (HL-60(TB) [13]): -5%
- growth at 0.1 µM (HCT-15): 99%
- GI50 (K562 [14]; read-out: GI50): 3.59 µM
- LC50 (concentration killing 50% of cells) (K562 [14]; read-out: LC50): > 100 µM
- TGI (K562 [14]; read-out: TGI): 32.9 µM
- GI50 (K562 [14]; read-out: pGI50 (converted)): 3.63 µM
- LC50 (concentration killing 50% of cells) (K562 [14]; read-out: pLC50 (converted)): > 100 µM
- TGI (K562 [14]; read-out: pTGI (converted)): 33.1 µM
- growth at 0.1 µM (SW-620 [15]): 97%
- growth at 0.1 µM (SK-MEL-28 [16]): 104%
- growth at 0.1 µM (K562 [17]): 96%
- growth at 100 µM (SNB-75): 32%
- growth at 0.1 µM (UACC-62): 100%
- GI50 ([18]; read-out: GI50): 3.6 µM
- CC50 [18, 25]: > 100 µM
- TGI ([18]; read-out: TGI): 53.6 µM
- GI50 ([18]; read-out: pGI50 (converted)): 3.63 µM
- CC50 [18, 26]: > 100 µM
- TGI ([18]; read-out: pTGI (converted)): 53.7 µM
- growth at 1 µM (HL-60(TB) [19]): 110%
- growth at 10 µM (A549): 94%
- growth at 1000 µM [20]: -7%
- growth at 1 µM (MCF7 [21]): 91%
- growth at 1 µM (SR [22]): 70%
- growth at 0.1 µM [23]: 94%
- growth at 100 µM (MOLT-4 [24]): 8%

SMILES: CNC(=O)NC[C@H]1O[C@@H](n2cnc3c(NC(=O)Nc4ccccc4)ncnc32)[C@H](O[Si](C)(C)C(C)(C)C)[C@@H]1CC(=O)N(C)OC
- growth at 0.1 µM (SK-MEL-2): 85%
- growth at 1 µM (NCI-H322M): 98%
- growth at 1000 µM (K562 [1]): 24%
- growth at 1000 µM (HL-60(TB) [2]): -58%
- growth at 1000 µM (SK-MEL-28 [3]): 27%
- growth at 10 µM (HCT-116): 89%
- growth at 1000 µM (SN12C): 49%
- growth at 1000 µM (SR [4]): -56%
- growth at 100 µM (T47D): 56%
- growth at 1000 µM [5]: -16%
- growth at 1000 µM (SW-620 [6]): 50%
- GI50 (SW-620 [7]; read-out: GI50): > 100 µM
- CC50 (SW-620 [7]; [25]): > 100 µM
- TGI (SW-620 [7]; read-out: TGI): > 100 µM
- GI50 (SW-620 [7]; read-out: pGI50 (converted)): > 100 µM
- CC50 (SW-620 [7]; [26]): > 100 µM
- TGI (SW-620 [7]; read-out: pTGI (converted)): > 100 µM
- growth at 100 µM (ACHN): 55%
- growth at 1 µM (SW-620 [8]): 102%
- GI50 (NCI-H460; read-out: GI50): 7.49 µM
- CC50 (NCI-H460; [25]): > 100 µM
- TGI (NCI-H460; read-out: TGI): > 100 µM
- GI50 (NCI-H460; read-out: pGI50 (converted)): 7.41 µM
- CC50 (NCI-H460; [26]): > 100 µM
- TGI (NCI-H460; read-out: pTGI (converted)): > 100 µM
- growth at 100 µM (SK-MEL-28 [9]): 44%
- growth at 100 µM (M14): 57%
- growth at 10 µM [11]: 82%
- growth at 1000 µM (MOLT-4 [12]): -5%
- growth at 100 µM (HL-60(TB) [13]): -48%
- growth at 0.1 µM (HCT-15): 96%
- GI50 (K562 [14]; read-out: GI50): 3.12 µM
- LC50 (concentration killing 50% of cells) (K562 [14]; read-out: LC50): > 100 µM
- TGI (K562 [14]; read-out: TGI): > 100 µM
- GI50 (K562 [14]; read-out: pGI50 (converted)): 3.09 µM
- LC50 (concentration killing 50% of cells) (K562 [14]; read-out: pLC50 (converted)): > 100 µM
- TGI (K562 [14]; read-out: pTGI (converted)): > 100 µM
- growth at 0.1 µM (SW-620 [15]): 99%
- growth at 0.1 µM (SK-MEL-28 [16]): 97%
- growth at 0.1 µM (K562 [17]): 95%
- growth at 100 µM (SNB-75): 54%
- growth at 0.1 µM (UACC-62): 102%
- GI50 ([18]; read-out: GI50): 5.79 µM
- CC50 [18, 25]: > 100 µM
- TGI ([18]; read-out: TGI): > 100 µM
- GI50 ([18]; read-out: pGI50 (converted)): 5.75 µM
- CC50 [18, 26]: > 100 µM
- TGI ([18]; read-out: pTGI (converted)): > 100 µM
- growth at 1 µM (HL-60(TB) [19]): 86%
- growth at 10 µM (A549): 97%
- growth at 1000 µM [20]: 12%
- growth at 1 µM (MCF7 [21]): 95%
- growth at 1 µM (SR [22]): 89%
- growth at 0.1 µM [23]: 98%
- growth at 100 µM (MOLT-4 [24]): -2%
